# Measurements as given in ChEMBL document CHEMBL1151565, “Biological evaluation of two potent inhibitors of Trypanosoma cruzi epimastigotes against the intracellular form of the parasite” (1996).
# Values joined by “and” are separate entries in the source; they are usually repeats but may differ in a detail not shown here. Equal entries are not always repeated.
# Tests used:
# Type in all cases: functional
# [1] = Compound was tested for its activity against T. cruzi-infected L6E9 myoblasts at a concentration of 30 ug/mL.
# [2] = Compound was tested for its activity against T. cruzi-infected L6E9 myoblasts expressed as parasites number per 100 myoblasts at no concentration at 24 h.
# [3] = Compound was tested for its activity against T. cruzi-infected L6E9 myoblasts expressed as parasites number per 100 myoblasts at no concentration at 48 hr.
# [4] = Compound was tested for its activity against T. cruzi-infected L6E9 myoblasts at no concentration at 72h.
# [5] = Compound was tested for its activity against T. cruzi-infected L6E9 myoblasts at no concentration at 24 h.
# [6] = Compound was tested for its activity against T. cruzi-infected L6E9 myoblasts expressed as parasites number per 100 myoblasts at a concentration of 30 ug/mL.
# [7] = Compound was tested for its activity against T. cruzi-infected L6E9 myoblasts at no concentration at 48 hr.
# [8] = Compound was tested for its activity against T. cruzi-infected L6E9 myoblasts expressed as parasites number per 100 myoblasts at no concentration at 72h.
# [9] = Compound was tested for its activity against T. cruzi-infected L6E9 myoblasts at a concentration of 40 ug/mL.
# [10] = Compound was tested for its activity against T. cruzi-infected L6E9 myoblasts expressed as parasites number per 100 myoblasts at a concentration of 5 ug/mL.
# [11] = Compound was tested for its activity against T. cruzi-infected L6E9 myoblasts at a concentration of 10 ug/mL.
# [12] = Compound was tested for its activity against T. cruzi-infected L6E9 myoblasts at a concentration of 5 ug/mL.
SMILES,Myoblast with parasites [1],Parasites no. per 100 Myoblasts [2],Parasites no. per 100 Myoblasts [3],Myoblast with parasites [4],Myoblast with parasites [5],Parasites no. per 100 Myoblasts [6],Myoblast with parasites [7],Parasites no. per 100 Myoblasts [8],Myoblast with parasites [9],Parasites no. per 100 Myoblasts [10],Myoblast with parasites [11],Myoblast with parasites [12]
CCSC(=O)OC/C=C(\C)CC/C=C(\C)CCC1OC1(C)C (stereo unspecified),23.25% and 9.75%,46.5,118,20.5%,21.25%,77.75 and 27,16.25%,694.5,10.25% and 2.75%,–,–,–
c1ccc(Oc2ccc(OCCOC3CCCCO3)cc2)cc1 (stereo unspecified),–,–,107,18.25%,21.25%,–,24.5%,–,–,90.25 and 113.75,21.25% and 12.5%,22.5% and 22%
